Assay results reported in patent publication US11976061B2, “Preparation of benzimidazolone derivatives as novel diacylglyceride O-acyltransferase 2 inhibitors” (Merck Sharp & Dohme LLC, priority 2020, dated 2024).

Biological target: T1, human DGAT2 (hDGAT2) (Homo sapiens, UniProt Q96PD7)
T1 construct: made in house; host or cells: Sf-9 insect cells (baculovirus), membrane fraction
T1 sequence (Q96PD7 1-388): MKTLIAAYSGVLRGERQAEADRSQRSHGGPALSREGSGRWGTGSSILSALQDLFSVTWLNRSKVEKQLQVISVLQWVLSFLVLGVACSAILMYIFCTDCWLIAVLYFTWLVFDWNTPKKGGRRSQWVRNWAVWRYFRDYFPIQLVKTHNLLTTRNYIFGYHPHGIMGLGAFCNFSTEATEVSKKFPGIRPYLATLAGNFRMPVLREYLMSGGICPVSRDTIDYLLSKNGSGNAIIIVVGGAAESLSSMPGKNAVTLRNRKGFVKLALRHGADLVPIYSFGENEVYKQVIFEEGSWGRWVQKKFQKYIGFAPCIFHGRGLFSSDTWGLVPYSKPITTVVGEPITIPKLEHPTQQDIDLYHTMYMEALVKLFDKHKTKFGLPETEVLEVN
Assay: DGAT2 Enzymatic Activity Assay
Format: biochemical
Conditions: membrane prep of Sf-9 cells expressing hDGAT2; 25 μM diolein, 5 μM 13C oleoyl-CoA; 13C18-triolein by LC/MS/MS; read-out: DGAT2 IC50
Procedure, shortened: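 Membranes from Sf-9 cells expressing untagged human DGAT2 (8 ng/μL) incubated at rt in 100 mM Tris·Cl pH 7.0, 20 mM MgCl2, 5% ethanol with 25 μM diolein and 5 μM 13C oleoyl-CoA. 13C18-triolein product quantified by LC/MS/MS against 13C21-triolein internal standard; IC50 by 4-parameter fit.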

| Structure (SMILES) | IC50 |
| --- | --- |
| CC(C)n1c(=O)n(-c2cccc(OC(F)F)c2)c2ncc(C(=O)N[C@]3(C)CCS(=O)(=O)C3)cc21 [Example 90, 3-[3-(difluoromethoxy)phenyl]-1-isopropyl-N-[(3R)-3-methyl-1,1-dioxo-thiolan-3-yl]-2-oxo-imidazo[4,5-b]pyridine-6-carboxamide] | 193 nM |
| CC(C)n1c(=O)n(-c2cccc(OC(F)(F)F)c2)c2ncc(C(=O)NC3(C)CS(=O)(=O)C3)cc21 [Example 91, 1-isopropyl-N-(3-methyl-1,1-dioxo-thietan-3-yl)-2-oxo-3-[3-(trifluoromethoxy)phenyl]imidazo[4,5-b]pyridine-6-carboxamide] | 355 nM |
| CC(C)n1c(=O)n(-c2cccc(OC(F)(F)F)c2)c2ncc(C(=O)NC3(C)CCS(=O)(=O)CC3)cc21 [Example 92, 1-isopropyl-N-(4-methyl-1,1-dioxo-thian-4-yl)-2-oxo-3-[3-(trifluoromethoxy)phenyl]imidazo[4,5-b]pyridine-6-carboxamide] | 236 nM |
| CC(C)n1c(=O)n(-c2cccc(OC(F)(F)C(F)F)c2)c2ncc(C(=O)NC3(C)CS(=O)(=O)C3)cc21 [Example 93, 1-isopropyl-N-(3-methyl-1,1-dioxo-thietan-3-yl)-2-oxo-3-[3-(1,1,2,2-tetrafluoroethoxy)phenyl]imidazo[4,5-b]pyridine-6-carboxamide] | 24 nM |
| CC(C)n1c(=O)n(-c2cccc(OC(F)(F)C(F)F)c2)c2ncc(C(=O)N[C@@]3(C)CCS(=O)(=O)C3)cc21 [Example 94, 1-isopropyl-N-[(3S)-3-methyl-1,1-dioxo-thiolan-3-yl]-2-oxo-3-[3-(1,1,2,2-tetrafluoroethoxy)phenyl]imidazo[4,5-b]pyridine-6-carboxamide] | 108 nM |
| CC(C)n1c(=O)n(-c2cccc(OC(F)(F)C(F)F)c2)c2ncc(C(=O)N[C@]3(C)CCS(=O)(=O)C3)cc21 [Example 95, 1-isopropyl-N-[(3R)-3-methyl-1,1-dioxo-thiolan-3-yl]-2-oxo-3-[3-(1,1,2,2-tetrafluoroethoxy)phenyl]imidazo[4,5-b]pyridine-6-carboxamide] | 23 nM |
| CCOc1cccc(-n2c(=O)n(C(C)C)c3cc(C(=O)NC4(C)CS(=O)(=O)C4)cnc32)c1 [Example 96, 3-(3-ethoxyphenyl)-1-isopropyl-N-(3-methyl-1,1-dioxo-thietan-3-yl)-2-oxo-imidazo[4,5-b]pyridine-6-carboxamide] | 93 nM |
| CCOc1cccc(-n2c(=O)n(C(C)C)c3cc(C(=O)N[C@@]4(C)CCS(=O)(=O)C4)cnc32)c1 [Example 97, 3-(3-ethoxyphenyl)-1-isopropyl-N-[(3S)-3-methyl-1,1-dioxo-thiolan-3-yl]-2-oxo-imidazo[4,5-b]pyridine-6-carboxamide] | 154 nM |
| CCOc1cccc(-n2c(=O)n(C(C)C)c3cc(C(=O)N[C@]4(C)CCS(=O)(=O)C4)cnc32)c1 [Example 98, 3-(3-ethoxyphenyl)-1-isopropyl-N-[(3R)-3-methyl-1,1-dioxo-thiolan-3-yl]-2-oxo-imidazo[4,5-b]pyridine-6-carboxamide] | 102 nM |
| CCOc1cccc(-n2c(=O)n(C(C)C)c3cc(C(=O)NC4(C)CCS(=O)(=O)CC4)cnc32)c1 [Example 99, 3-(3-ethoxyphenyl)-1-isopropyl-N-(4-methyl-1,1-dioxo-thian-4-yl)-2-oxo-imidazo[4,5-b]pyridine-6-carboxamide] | 52 nM |
| CC(C)Oc1cccc(-n2c(=O)n(C(C)C)c3cc(C(=O)NC4(C)CS(=O)(=O)C4)cnc32)c1 [Example 100, 3-(3-isopropoxyphenyl)-1-isopropyl-N-(3-methyl-1,1-dioxo-thietan-3-yl)-2-oxo-imidazo[4,5-b]pyridine-6-carboxamide] | 692 nM |
| CC(C)Oc1cccc(-n2c(=O)n(C(C)C)c3cc(C(=O)NC4(C)CCS(=O)(=O)CC4)cnc32)c1 [Example 101, 3-(3-isopropoxyphenyl)-1-isopropyl-N-(4-methyl-1,1-dioxo-thian-4-yl)-2-oxo-imidazo[4,5-b]pyridine-6-carboxamide] | 506 nM |
